{"source": "paper PMC10140010", "about": "(Investigational New Drugs, 2023)", "key": {"[1]": {"test_system": "phosphorylation of ALK, AKT, ERK, STAT3 in NCI-H3122 cells", "test": "Western blot of ALK and downstream signaling phosphorylation", "format": "cell-based, human", "details": "2 h incubation", "procedure": "In general, the cells were exposed to the drug and were harvested for western blot analysis. SDS-PAGE was used to separate the proteins of interest, which were then transferred to a nitrocellulose (NC) filtration membrane and soaked in a blocking solution [5% non-fat dry milk in tris-buffered saline with Tween 20 (TBST)] for 1 h at room temperature. Thereafter, the membrane was probed overnight with primary antibodies at 4℃ and washed three times with TBST. The corresponding secondary antibody diluent was added, incubated at room temperature for 1 h, and washed 3 times with TBST. After adding the enhanced chemiluminescence developer to the NC filtration membrane, it is developed in the imaging system (ChemiDoc™ XRS^+, BIO-RAD). See Supplementary Table 2 for details of the antibodies used."}, "[2]": {"test_system": "CYP1A2", "test": "Hepatic enzyme induction in human hepatocytes", "format": "in vitro ADME", "details": "10 µM, human hepatocytes from three donors", "procedure": "Human hepatocytes derived from three donors were used for evaluating for hepatic enzyme inducing activity. […] The gene expression related to cytochrome P450 isoenzyme CYP3A4 in hepatocytes of one of the three donors increased with iruplinalkib 1 µM."}, "[3]": {"test_system": "CYP2B6", "test": "Hepatic enzyme induction in human hepatocytes (gene expression)", "format": "in vitro ADME"}, "[4]": {"test_system": "OAT1", "test": "Uptake inhibitor investigation in HEK293 cells expressing transporter", "format": "in vitro ADME"}, "[5]": {"biological_target": "T1, BSEP (Homo sapiens, UniProt O95342)", "T1 construct": "host or cells: membrane vesicles ('Membrane capsule'), BSEP versus NC control, with ATP or AMP", "T1 sequence (O95342 whole entry)": "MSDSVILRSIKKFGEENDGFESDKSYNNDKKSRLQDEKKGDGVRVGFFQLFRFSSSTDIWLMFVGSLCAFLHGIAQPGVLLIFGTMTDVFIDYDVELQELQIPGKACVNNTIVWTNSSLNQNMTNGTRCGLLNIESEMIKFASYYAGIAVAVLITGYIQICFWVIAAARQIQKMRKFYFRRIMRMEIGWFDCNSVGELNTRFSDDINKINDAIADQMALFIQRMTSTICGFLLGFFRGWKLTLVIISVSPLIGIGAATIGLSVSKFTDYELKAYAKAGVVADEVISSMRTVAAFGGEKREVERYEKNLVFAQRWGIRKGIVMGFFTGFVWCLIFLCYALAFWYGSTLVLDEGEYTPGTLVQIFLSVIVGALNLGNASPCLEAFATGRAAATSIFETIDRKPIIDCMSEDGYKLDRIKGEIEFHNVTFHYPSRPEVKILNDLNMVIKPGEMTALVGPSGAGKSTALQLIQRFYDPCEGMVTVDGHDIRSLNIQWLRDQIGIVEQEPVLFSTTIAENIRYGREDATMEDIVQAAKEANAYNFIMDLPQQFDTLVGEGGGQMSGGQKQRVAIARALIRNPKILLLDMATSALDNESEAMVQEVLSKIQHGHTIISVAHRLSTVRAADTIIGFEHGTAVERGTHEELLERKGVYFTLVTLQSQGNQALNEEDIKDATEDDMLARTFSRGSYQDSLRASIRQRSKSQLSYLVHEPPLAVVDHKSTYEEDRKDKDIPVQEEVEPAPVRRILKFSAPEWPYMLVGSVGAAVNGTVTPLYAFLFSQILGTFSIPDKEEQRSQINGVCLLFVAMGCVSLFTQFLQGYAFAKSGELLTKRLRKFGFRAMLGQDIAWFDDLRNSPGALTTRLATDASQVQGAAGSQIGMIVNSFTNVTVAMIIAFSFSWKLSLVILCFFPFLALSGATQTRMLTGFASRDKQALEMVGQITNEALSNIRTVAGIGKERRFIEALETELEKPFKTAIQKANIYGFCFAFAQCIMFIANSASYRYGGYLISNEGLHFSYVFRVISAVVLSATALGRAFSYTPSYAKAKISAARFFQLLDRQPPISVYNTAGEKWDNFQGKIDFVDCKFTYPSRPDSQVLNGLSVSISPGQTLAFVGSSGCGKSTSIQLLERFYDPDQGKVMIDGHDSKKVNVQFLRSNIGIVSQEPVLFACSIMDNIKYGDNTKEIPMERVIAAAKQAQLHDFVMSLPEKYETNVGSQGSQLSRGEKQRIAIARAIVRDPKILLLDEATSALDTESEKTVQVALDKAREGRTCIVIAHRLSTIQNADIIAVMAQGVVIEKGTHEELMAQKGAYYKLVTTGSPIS", "test": "BSEP inhibitor investigation", "format": "in vitro ADME"}, "[6]": {"biological_target": "T2, MATE1 (Homo sapiens, UniProt Q96FL8)", "T2 sequence (Q96FL8 1-570)": "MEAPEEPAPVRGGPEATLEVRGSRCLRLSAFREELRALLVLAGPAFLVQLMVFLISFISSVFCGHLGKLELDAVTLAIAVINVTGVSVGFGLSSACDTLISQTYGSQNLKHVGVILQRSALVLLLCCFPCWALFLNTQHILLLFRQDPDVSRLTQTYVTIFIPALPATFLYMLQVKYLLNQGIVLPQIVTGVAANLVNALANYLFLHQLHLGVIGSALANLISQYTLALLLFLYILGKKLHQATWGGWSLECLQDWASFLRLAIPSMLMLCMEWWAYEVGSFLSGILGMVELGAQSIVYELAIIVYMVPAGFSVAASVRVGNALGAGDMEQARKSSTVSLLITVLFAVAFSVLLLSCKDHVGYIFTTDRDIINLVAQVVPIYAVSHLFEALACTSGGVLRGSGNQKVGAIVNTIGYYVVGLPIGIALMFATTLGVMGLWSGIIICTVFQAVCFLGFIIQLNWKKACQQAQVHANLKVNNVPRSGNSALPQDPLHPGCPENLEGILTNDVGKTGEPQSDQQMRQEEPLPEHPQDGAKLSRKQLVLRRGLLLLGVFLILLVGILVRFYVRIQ"}, "[7]": {"biological_target": "FGFR1 (Homo sapiens, UniProt P11362)", "sequence (P11362 22-822)": "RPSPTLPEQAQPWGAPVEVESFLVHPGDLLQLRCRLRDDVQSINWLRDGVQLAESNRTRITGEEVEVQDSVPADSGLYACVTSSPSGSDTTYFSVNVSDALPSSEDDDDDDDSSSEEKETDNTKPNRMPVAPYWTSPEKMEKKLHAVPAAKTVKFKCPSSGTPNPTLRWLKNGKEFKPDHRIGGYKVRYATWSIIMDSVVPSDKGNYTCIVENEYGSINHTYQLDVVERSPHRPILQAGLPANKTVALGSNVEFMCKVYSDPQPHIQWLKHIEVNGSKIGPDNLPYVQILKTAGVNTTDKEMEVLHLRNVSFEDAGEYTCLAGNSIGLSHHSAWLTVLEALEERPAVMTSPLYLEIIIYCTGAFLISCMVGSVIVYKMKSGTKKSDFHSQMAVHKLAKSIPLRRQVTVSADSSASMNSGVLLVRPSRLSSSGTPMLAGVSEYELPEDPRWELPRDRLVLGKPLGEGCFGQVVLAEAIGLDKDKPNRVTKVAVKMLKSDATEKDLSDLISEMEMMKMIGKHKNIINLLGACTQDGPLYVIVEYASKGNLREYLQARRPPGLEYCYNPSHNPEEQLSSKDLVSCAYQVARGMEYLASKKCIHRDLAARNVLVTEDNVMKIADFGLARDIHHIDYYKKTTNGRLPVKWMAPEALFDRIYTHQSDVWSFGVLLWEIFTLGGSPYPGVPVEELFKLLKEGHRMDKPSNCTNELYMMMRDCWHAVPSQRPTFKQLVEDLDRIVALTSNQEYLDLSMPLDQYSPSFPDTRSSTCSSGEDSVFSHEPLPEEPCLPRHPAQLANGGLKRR", "test": "Z'-LYTE kinase selectivity"}, "[8]": {"biological_target": "T3, OATP1B3 (Homo sapiens, UniProt Q9NPD5)", "T3 sequence (Q9NPD5 1-702)": "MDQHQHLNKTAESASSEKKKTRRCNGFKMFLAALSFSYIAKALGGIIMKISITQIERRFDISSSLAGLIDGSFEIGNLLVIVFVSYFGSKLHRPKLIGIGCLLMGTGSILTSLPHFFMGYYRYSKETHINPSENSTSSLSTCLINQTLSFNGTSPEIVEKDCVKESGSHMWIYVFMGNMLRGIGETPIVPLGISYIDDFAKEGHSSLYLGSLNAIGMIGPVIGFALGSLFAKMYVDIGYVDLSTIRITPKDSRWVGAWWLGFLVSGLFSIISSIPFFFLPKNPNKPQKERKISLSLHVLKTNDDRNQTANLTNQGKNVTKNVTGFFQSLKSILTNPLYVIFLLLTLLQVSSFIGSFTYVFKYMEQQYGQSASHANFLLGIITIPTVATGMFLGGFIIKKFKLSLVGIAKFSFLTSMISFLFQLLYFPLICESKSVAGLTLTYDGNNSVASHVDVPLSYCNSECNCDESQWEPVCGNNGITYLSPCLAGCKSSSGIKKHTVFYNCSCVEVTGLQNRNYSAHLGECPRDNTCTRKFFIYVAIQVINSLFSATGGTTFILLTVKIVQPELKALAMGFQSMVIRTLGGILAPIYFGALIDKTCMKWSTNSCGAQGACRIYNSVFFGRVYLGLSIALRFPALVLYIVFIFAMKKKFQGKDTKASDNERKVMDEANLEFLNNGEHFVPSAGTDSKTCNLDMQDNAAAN", "test": "Uptake substrate investigation in HEK293 cells expressing transporter", "details": "for Uptake transport activity, Mean: OATP1B3-293; for Uptake transport activity, Mean / Ratio of uptake transit activity / Uptake transport activity, Net value: Suppl. Table 11; for Ratio of uptake transit activity / Uptake transport activity, Net value: OATP1B3-293 vs MOCK293"}, "[9]": {"test_system": "OAT1", "test": "Uptake substrate investigation in HEK293 cells expressing transporter"}, "[10]": {"details": "human, HEK293 cells expressing OAT1, probe ATV, 1 μM, read-out: Inhibition rate"}, "[11]": {"details": "MOCK293, test substrate 10 μM, no inhibitor, OAT1 pre-test"}, "[12]": {"details": "OATP1B1-293 (so in the source), test substrate 10 μM, no inhibitor, OAT1 pre-test"}, "[13]": {"details": "transporter cells vs MOCK293, test substrate 10 μM, no inhibitor, OAT1 pre-test"}}, "note": "Values joined by “and” are separate entries in the source; they are usually repeats but may differ in a detail not shown here. Equal values may be shown once. Read-outs that look alike come from different tables or passages of the source.", "data": [{"smiles": "COc1cc(N2CCC3(CCN(C)CC3)CC2)ccc1Nc1ncc(Cl)c(Nc2ccccc2P(C)(C)=O)n1", "note": "[Iruplinalkib]", "values": [{"measurement": "phosphorylation level of STAT3", "setting": "[1]", "result": "not STAT3"}, {"measurement": "phosphorylation levels of ALK, AKT, ERK", "setting": "[1]", "result": "reduced"}, {"measurement": "inducer of CYP1A2", "setting": "[2]", "result": "not an inducer"}, {"measurement": "inducer of CYP2B6", "setting": "[3]; 10 µM, human hepatocytes from three donors", "result": "not an inducer"}, {"measurement": "CYP2B6 gene expression, folds of expression", "setting": "[3]; donor 1, 0.1 µM", "result": 0.798, "unit": "fold"}, {"measurement": "CYP2B6 gene expression, folds of expression", "setting": "[3]; donor 1, 1 µM", "result": 1.36, "unit": "fold"}, {"measurement": "CYP2B6 gene expression, folds of expression", "setting": "[3]; donor 1, 10 µM", "result": 2.62, "unit": "fold"}, {"measurement": "CYP2B6 gene expression, folds of expression", "setting": "[3]; donor 2, 0.1 µM", "result": 0.862, "unit": "fold"}, {"measurement": "CYP2B6 gene expression, folds of expression", "setting": "[3]; donor 2, 1 µM", "result": 0.926, "unit": "fold"}, {"measurement": "CYP2B6 gene expression, folds of expression", "setting": "[3]; donor 2, 10 µM", "result": 4.02, "unit": "fold"}, {"measurement": "CYP2B6 gene expression, folds of expression", "setting": "[3]; donor 3, 0.1 µM", "result": 0.526, "unit": "fold"}, {"measurement": "CYP2B6 gene expression, folds of expression", "setting": "[3]; donor 3, 1 µM", "result": 1.13, "unit": "fold"}, {"measurement": "CYP2B6 gene expression, folds of expression", "setting": "[3]; donor 3, 10 µM", "result": 0.602, "unit": "fold"}, {"measurement": "inhibitor of OAT1", "setting": "[4]; HEK293", "result": "can not be its inhibitor"}, {"measurement": "inhibition at 0.5 μM", "setting": "[4]; [10]", "result": 26.7, "unit": "%"}, {"measurement": "inhibition at 5 μM", "setting": "[4]; [10]", "result": 22.5, "unit": "%"}, {"measurement": "inhibition at 50 μM", "setting": "[4]; [10]", "result": 31.9, "unit": "%"}, {"measurement": "efflux inhibitor of BSEP", "setting": "[5]", "result": "not an efflux inhibitor"}, {"measurement": "inhibition at 0.1 μM", "setting": "[5]; BSEP membrane capsules (membrane vesicles), ATP vs AMP, probe TCA, BSEP, substrate TCA 10 μM, inhibitor 0.1 μM, read-out: Inhibition rate", "result": -25.4, "unit": "%"}, {"measurement": "inhibition at 0.3 μM", "setting": "[5]; BSEP membrane capsules (membrane vesicles), ATP vs AMP, probe TCA, BSEP, substrate TCA 10 μM, inhibitor 0.3 μM, read-out: Inhibition rate", "result": -10.7, "unit": "%"}, {"measurement": "inhibition at 1 μM", "setting": "[5]; BSEP membrane capsules (membrane vesicles), ATP vs AMP, probe TCA, BSEP, substrate TCA 10 μM, inhibitor 1 μM, read-out: Inhibition rate", "result": -26.7, "unit": "%"}, {"measurement": "inhibition at 3 μM", "setting": "[5]; BSEP membrane capsules (membrane vesicles), ATP vs AMP, probe TCA, BSEP, substrate TCA 10 μM, inhibitor 3 μM, read-out: Inhibition rate", "result": -11.8, "unit": "%"}, {"measurement": "inhibition at 10 µM", "setting": "[5]; BSEP membrane capsules (membrane vesicles), ATP vs AMP, probe TCA, BSEP, substrate TCA 10 μM, inhibitor 10 μM, read-out: Inhibition rate", "result": -10.5, "unit": "%"}, {"measurement": "inhibition at 30 μM", "setting": "[5]; BSEP membrane capsules (membrane vesicles), ATP vs AMP, probe TCA, BSEP, substrate TCA 10 μM, inhibitor 30 μM, read-out: Inhibition rate", "result": -0.09, "unit": "%"}, {"measurement": "inhibition at 100 μM", "setting": "[5]; BSEP membrane capsules (membrane vesicles), ATP vs AMP, probe TCA, BSEP, substrate TCA 10 μM, inhibitor 100 μM, read-out: Inhibition rate", "result": 26.3, "unit": "%"}, {"measurement": "Uptake transport activity, Net value", "setting": "[6]; 0.5 μM", "result": 532.9, "unit": "pmol/mg protein/min"}, {"measurement": "Uptake transport activity, Net value", "setting": "[6]; 5 μM", "result": 55.01, "unit": "pmol/mg protein/min"}, {"measurement": "Uptake transport activity, Net value", "setting": "[6]; 50 μM", "result": -114.5, "unit": "pmol/mg protein/min"}, {"measurement": "IC50", "setting": "[7]", "result": "249 ± 71", "unit": "nM"}, {"measurement": "uptake transport activity ratio, OATP1B3", "setting": "[8]; 30 µM, 3 µM, 0.3 µM, HEK293", "result": "less than two"}, {"measurement": "uptake substrate of OATP1B3", "setting": "[8]; HEK293", "result": "not an uptake substrate"}, {"measurement": "Uptake transport activity, Mean", "setting": "[8]; 0.3 μM", "result": 8.165, "unit": "pmol/mg protein/min"}, {"measurement": "Uptake transport activity, Mean", "setting": "[8]; 3 μM", "result": 57.94, "unit": "pmol/mg protein/min"}, {"measurement": "Uptake transport activity, Mean", "setting": "[8]; 30 μM", "result": 641.1, "unit": "pmol/mg protein/min"}, {"measurement": "Ratio of uptake transit activity", "setting": "[8]; 0.3 μM", "result": 1.38}, {"measurement": "Uptake transport activity, Net value", "setting": "[8]; 0.3 μM", "result": 2.263, "unit": "pmol/mg protein/min"}, {"measurement": "Ratio of uptake transit activity", "setting": "[8]; 3 μM", "result": 1.29}, {"measurement": "Uptake transport activity, Net value", "setting": "[8]; 3 μM", "result": 12.964, "unit": "pmol/mg protein/min"}, {"measurement": "Ratio of uptake transit activity", "setting": "[8]; 30 μM", "result": 1.32}, {"measurement": "Uptake transport activity, Net value", "setting": "[8]; 30 μM", "result": 156.58, "unit": "pmol/mg protein/min"}, {"measurement": "uptake substrate of OAT1", "setting": "[9]; HEK293", "result": "not an uptake substrate"}, {"measurement": "Uptake transport activity, Mean", "setting": "[9]; [11]", "result": 313.6, "unit": "pmol/mg protein/min"}, {"measurement": "Uptake transport activity, Repeat 1 / Repeat 2", "setting": "[9]; [11]", "result": "302.7 pmol/mg protein/min and 324.5 pmol/mg protein/min"}, {"measurement": "Uptake transport activity, Mean", "setting": "[9]; [12]", "result": 289.1, "unit": "pmol/mg protein/min"}, {"measurement": "Uptake transport activity, Repeat 1 / Repeat 2", "setting": "[9]; [12]", "result": "285.7 pmol/mg protein/min and 292.5 pmol/mg protein/min"}, {"measurement": "Ratio of uptake transit activity", "setting": "[9]; [13]", "result": 0.92}, {"measurement": "Uptake transport activity, Net value", "setting": "[9]; [13]", "result": -24.51, "unit": "pmol/mg protein/min"}]}]}
